Data from a melting point compilation (Tetko et al.; mined from patent text by program, amines drawn as free bases though some values may be those of a salt).

Row | melting point [°C] | SMILES
1 | 243 | COc1ccc(C2CC(c3ccccc3OC)=NN2c2ccc(C(=O)O)cc2)cc1 (configuration not stated)
2 | 298 to 300 | N#Cc1ccc(-c2ccc(-c3cn4cc(C#N)ccc4n3)o2)cc1
3 | 78 | CCOC(=O)c1ccccc1NC(=O)C(F)(F)F
4 | 142 to 143 | O=C(CCCN1CCC(c2noc3cc(F)ccc23)CC1)c1cc2c(s1)CCCNC2=O
5 | 166 | CCc1cccc(C)c1CNc1nc(CO)cn2c(C)c(C)nc12
6 | 163 to 166 | COC(=O)c1ccccc1Oc1ccc(S(=O)(=O)NCc2ccnc3ccccc23)cc1
7 | 215 to 216 | COc1ccc(C2=NN(C3CCN(CC(N)=O)CC3)C(=O)C(C)(C)C2)c2c1OC(C)(C)C2
8 | 145 | Nc1nc2cc(Cl)c(Cl)cc2n1C1OC(CO)C(O)C1O (configuration not stated)
9 | > 300 | Nc1ccc2c(c1)CN(c1c(F)cc3c(=O)c(C(=O)O)cn(-c4ccc(F)cc4F)c3c1F)C2
10 | 236 to 237 | CC(C)(C)OC(=O)N1C[C@@H]2OCc3c(-c4ccccc4)nnn3[C@H]2C1
11 | 142 to 143 | O=S(=O)(Cc1ccccc1)c1ncc(Br)cn1
12 | 32 to 33 | Cc1cnc(Br)c(F)c1
13 | 159 to 161 | COc1ccc(CC(S)C(N)=O)cc1C(=O)NCc1ccc(C(F)(F)F)cc1 (configuration not stated)
14 | 278 to 280 | O=c1c[n+]([O-])c2cc(Cl)c(Cl)cc2[nH]1
15 | 204 to 206 | COc1cc2nccc(N3CCN(C(=O)Nc4ccc(Oc5ccccc5)cc4)CC3)c2cc1OC
16 | 143 to 146 | Nc1cn(-c2cccnc2)nc1Br
17 | 270 to 272 | Nc1nc(Oc2c(Cl)cccc2Cl)nc2nc(-c3ccco3)nn12
18 | 214 | CC(C)c1nc(COC(N)=O)n(Cc2ccc[nH]c2=O)c1Sc1cc(Cl)cc(Cl)c1
19 | 190 to 191 | CC(C)n1nnnc1CCCn1ccc2cc(NC(=O)c3nc4ccc(Cl)cc4n3Cc3ccccc3)ccc21
20 | 130 to 131 | COc1cc(C)c(NS(=O)(=O)N(C)C)cc1C(=O)NCC1CCCO1 (configuration not stated)
21 | 136 to 137 | O=C(Nc1ccc(F)cc1F)NN1CC=CCC1
22 | 126 to 128 | O=C(CCCCCCC(=O)N1CCN(c2cccc(C(F)(F)F)c2)CC1)NO
23 | > 300 | Cn1cc(CO)c(=O)c2ccc(Br)cc21
24 | 48 to 49 | Cc1cc([N+](=O)[O-])c(C)nc1OC(F)F

Row | melting point [°C] | SMILES
25 | 113 to 116 | CCOC(=O)c1cc2c3ccccc3nc(C)n2c1
26 | 283 to 291 | O=C(O)c1cn(-c2ccc(F)cc2)c2c(F)c(N3Cc4cccc(Cl)c4C3)c(F)cc2c1=O
27 | 115 to 118 | CCCCOC(=O)Nc1nc(C(=NOC2CCCC2)C(=O)OC)ns1
28 | 101 to 102 | Cc1ccc(N2CCN(CCCc3[nH]nc4c3CCC4)CC2)cc1
29 | 115 to 117 | OC/C=C(\c1ccccc1)c1ccc(C#Cc2ccccc2)cc1
30 | 60 | c1cc(OCC2CO2)c2cn[nH]c2c1 (configuration not stated)
31 | 125 | O=C(NCCO)c1cnccn1
32 | 165 to 167 | Oc1ccc(CCn2ccn(C3CCc4ccccc4C3)c2=S)cc1O (configuration not stated)
33 | 171 to 172 | CN1CCC/C1=C\c1nc(-c2ccc(F)cc2)c(-c2ccncc2)n1CCCc1ccccc1
34 | 168 to 170 | Cc1cc(Cl)c(C)c(C(=O)O)c1
35 | 128 to 130 | CN=C(NS(=O)(=O)c1ccc(Cl)cc1)C1=NN(c2ccc(Cl)cc2Cl)C(c2ccccc2)C1 (configuration not stated)
36 | 168 to 178 | CC(=O)OC1CCC2(C)C(CCC3C2CCC2(C)C3CCC2C(C)(O)C#N)C1 (configuration not stated)
37 | 128 to 129 | COc1ccccc1N1CCN(CCn2c(=O)c3cscc3n(C(C)=O)c2=O)CC1
38 | 98 to 117 | Nc1ccc(C(=O)N2Cc3ccnn3Cc3ccccc32)c(Cl)c1
39 | 134 to 135 | Cc1c(-c2ccccc2)oc2c(C(=O)CBr)cccc2c1=O
40 | 98 to 100 | CCOC(=O)c1c(CN(CC)CC)nc2sc(C)c(C)c2c1-c1ccc(Cl)cc1
41 | 145 to 147 | Nc1nc(-c2ccc(OCC(=O)NCC3CCCCC3)cc2)cs1
42 | 212 to 213 | O=C(Nc1ccc(C(=O)c2ccccc2)cc1)c1ccc(-c2ccccc2)cc1
43 | 137 to 138 | C[C@](N)(Cc1ccccc1)C(=O)O
44 | 208 to 209 | Cn1c(C=[N+](C)[O-])cnc1[N+](=O)[O-]
45 | 170 to 171 | CCOC(=O)C1=C(C(Br)Br)Nc2ncnn2C1C (configuration not stated)
46 | 146 to 148 | CCOC(=O)C1CCn2c1cc(C)c2C(=O)c1ccc2n1CCS2 (configuration not stated)
47 | 108 to 110 | CCCC(=O)Nc1ccn(C2OC(CO)C(O)C2O)c(=O)n1 (configuration not stated)
48 | 197 to 199 | COc1cc2nc(S(=O)(=O)Nc3c(OC)ccnc3Cl)nn2c(OC)n1

Row | melting point [°C] | SMILES
49 | 136 to 137 | CCCCCc1oc(-c2ccc(Cl)cc2)nc1CC(=O)O
50 | 75 to 76 | CC(C)C(C#N)c1ccc(OCc2ccccc2)c(OCc2ccccc2)c1 (configuration not stated)
51 | 96 to 98 | CC(C)Oc1cc(CCCOc2c(CC(=O)O)ccc3ccccc23)n(Cc2ccc(Cl)cc2Cl)n1
52 | 127 to 128 | CC1(CNC(=O)C(F)(F)F)CN(C(c2ccccc2)c2ccccc2)C1
53 | 270 to 271 | CC(=O)NS(=O)(=O)c1cc(C(=O)O)cc([N+](=O)[O-])c1Oc1ccccc1
54 | 60 to 61 | Cc1c(C2=NC(C)(C)CO2)cccc1[N+](=O)[O-]
55 | 178 to 179 | CCNS(=O)(=O)Nc1ccc(C(O)(C(F)(F)F)C(F)(F)F)cc1
56 | 158 to 160 | CC(C)(C)c1ccc(C(CO)NC(=O)c2c(F)c(F)cc(F)c2F)cc1 (configuration not stated)
57 | 43 | Cc1cc2ccccc2n1-c1ccc(F)cc1
58 | 117 to 119 | COc1cc2ncnc(N3CCN(C(=S)Nc4ccc(C(F)(F)F)cc4)CC3)c2cc1OC
59 | 194 to 196 | CCCCCCCCCCCCCCCC(=O)Nc1ccc(C(=O)O)cc1C
60 | 75 to 81 | CC(C)(C)OC(=O)NCCCc1ccc(OCCC2Oc3ccccc3N(Cc3cccc(Cl)c3)C2=O)cc1 (configuration not stated)
61 | 138 | Cc1cc(-n2cccn2)c2cccc(OCc3c(Cl)ccc(S(=O)(=O)N4CCC(CO)CC4)c3Cl)c2n1
62 | 160 to 165 | C[C@@H](NS(=O)(=O)c1ccc(Cl)cc1)[C@](O)(Cn1cncn1)c1ccc(Cl)cc1Cl (relative stereo)
63 | 115 to 117 | COc1ccc(-c2cc3c(Br)c(OC)ccc3o2)cc1
64 | 209 to 211 | CNC(=O)Nc1cc2c(c3c1OC(C)(C)C3)C(c1ccccc1)=NC(C)(C)C2
65 | 230 to 232 | COCCOc1cc(NS(=O)(=O)c2ccccn2)c2[nH]c(C(=O)O)cc2c1
66 | 44 to 46 | O=C(C=Cc1ccc(F)cc1)C1CCCCC1
67 | 271 to 272 | CC(C)(C)Nc1c(NCc2ccncc2)c(=O)c1=O
68 | 175 to 180 | CCOC(=O)C(=O)Nc1cc(C(F)(F)F)c(S(=O)(=O)NC(=O)C(=O)OCC)cc1[N+](=O)[O-]
69 | 79 to 81 | CCCNCc1cccc(OCCCNc2nc(N)nn2C)c1
70 | 57 to 58 | Cc1c(Cc2cccnc2)oc2ccc(Br)cc12

Row | SMILES | melting point [°C]
71 | Cn1nc(C(=O)NCC2(O)CN3CCC2CC3)c2ccccc21 (configuration not stated) | 147 to 149
72 | CNCc1nc(-c2ncn3c2[C@@H]2CCN2C(=O)c2cc(F)ccc2-3)no1 | 155 to 160
